In PMC3849272, “Strong cellulase inhibitors from the hydrothermal pretreatment of wheat straw” (Biotechnology for Biofuels, 2013):

Assays:
TrCel7A = biological target: T1, TrCel7A (Trichoderma reesei, UniProt P62694); assay: inhibition of 4-methylumbelliferyl-beta-lactoside hydrolysis, fluorescence, initial rates; assay type: biochemical; conditions: 5 μM MUL, 10 nM enzyme, 50 mM sodium acetate pH 5.0, BSA 0.1 g/l, 35°C
T1 construct: gene cbh1; native enzyme purified from culture filtrate of T. reesei QM 9414; secreted, signal peptide removed; about 50 kDa
T1 sequence (P62694 18-513): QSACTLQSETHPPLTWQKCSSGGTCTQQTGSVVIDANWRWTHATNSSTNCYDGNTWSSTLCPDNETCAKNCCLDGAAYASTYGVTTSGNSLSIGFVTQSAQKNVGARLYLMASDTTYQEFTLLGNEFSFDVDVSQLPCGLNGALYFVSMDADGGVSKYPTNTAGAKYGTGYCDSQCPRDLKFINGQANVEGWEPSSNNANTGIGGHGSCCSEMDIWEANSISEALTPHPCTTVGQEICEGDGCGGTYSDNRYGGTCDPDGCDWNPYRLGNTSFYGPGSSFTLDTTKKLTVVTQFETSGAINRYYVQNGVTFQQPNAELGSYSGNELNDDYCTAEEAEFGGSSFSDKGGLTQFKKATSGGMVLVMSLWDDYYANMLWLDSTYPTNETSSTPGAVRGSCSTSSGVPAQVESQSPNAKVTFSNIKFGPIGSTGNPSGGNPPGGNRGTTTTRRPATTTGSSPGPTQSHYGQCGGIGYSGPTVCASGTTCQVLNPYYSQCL

TrCel7B = biological target: T2, TrCel7B (Trichoderma reesei, UniProt P07981); assay: as above; assay type: biochemical; conditions: 20 μM MUL, 10 nM enzyme, 50 mM sodium acetate pH 5.0, BSA 0.1 g/l, 35°C
T2 construct: gene egl1; native enzyme purified from culture filtrate of T. reesei QM 9414; secreted, signal peptide removed
T2 sequence (P07981 23-459): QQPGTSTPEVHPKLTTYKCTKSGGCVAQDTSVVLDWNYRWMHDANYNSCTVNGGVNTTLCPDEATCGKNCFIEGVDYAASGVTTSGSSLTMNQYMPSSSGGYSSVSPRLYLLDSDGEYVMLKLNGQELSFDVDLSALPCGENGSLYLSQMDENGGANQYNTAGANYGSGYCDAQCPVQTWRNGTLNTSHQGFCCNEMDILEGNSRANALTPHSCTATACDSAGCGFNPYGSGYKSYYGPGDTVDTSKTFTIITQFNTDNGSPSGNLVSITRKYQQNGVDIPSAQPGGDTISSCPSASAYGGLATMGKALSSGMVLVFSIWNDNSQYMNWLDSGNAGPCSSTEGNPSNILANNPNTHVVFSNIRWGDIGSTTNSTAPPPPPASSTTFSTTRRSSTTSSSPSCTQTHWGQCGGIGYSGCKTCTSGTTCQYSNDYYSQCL

IC50 (TrCel7A): 0.036 ± 0.006 mM | IC50 (TrCel7B): 8.9 ± 0.4 mM
SMILES: OC[C@H]1O[C@@H](O[C@H]2[C@H](O)[C@@H](O)C(O)O[C@@H]2CO)[C@H](O)[C@@H](O)[C@@H]1O (some centres unmarked) [cellobiose]
